Starred links: 1 amine or outer side, 2 acyl side, 3 side chain; linkers in the order of their positions; H or OH if unused. Positions of bridges follow the written chain, without caps; N, C: chain ends. Residues, ends and D or L forms follow the SMILES beside them. No end group written: not given here. mXylylene = c1cc(C[*:1])cc(C[*:2])c1
Tests used:
CaVβ2a core = CaVβ2a core (Rattus norvegicus, UniProt Q8VGC3); test: Isothermal titration calorimetry, AID peptide:CaVβ2a binding; conditions: for Kd: 150 mM KCl, 10 mM potassium phosphate, 20 μM peptide into 2 μM CaVβ2a core
Text: Having determined that the backbone staples are able to affect AID helix content (Figure 1) and are structurally compatible with the CaVβ-AID interaction (Figure 2), we used isothermal titration calorimetry (ITC) to investigate whether the AID staples impacted binding thermodynamics. […] (Figure 3A, Table 1). This binding reaction is driven by a favorable enthalpic component (ΔH = −15.6 ± 2.4 kcal mol^–1) that is opposed by a large entropic cost (ΔS = −16.7 ± 6.0 cal mol^–1 K^–1) that most likely results from the requirement to reduce the degrees of freedom of the highly disordered ligand upon binding.
Titrations were performed at 15 °C using a VP-ITC microcalorimeter (MicroCal). Samples were dialyzed overnight at 4 °C (Slide-A-Lyzer, 2 kDa molecular weight cutoff, Thermo Scientific) against 150 mM KCl and 10 mM potassium phosphate, pH 7.3. After 30 min centrifugation at 40 000 rpm at 4 °C, protein concentrations were determined by absorbance at 280 nm.[91] All samples were degassed for 5 min prior to loading into the calorimeter. CaV1.2 CaVβ2a core at a concentration of 2 μM was titrated with 20 μM modified or unmodified AID peptide with one 4 μL injection followed by 29 injections of 10 μL of titrant. To correct the baseline, heat of dilution from titrations of injectant into buffer was subtracted. Data were processed with MicroCal Origin 7.0 using a single site binding model.

CaV1.2:CaVβ3 = target: T1, CaV1.2:CaVβ3 (Oryctolagus cuniculus, UniProt P54286); test: Peptide injection competition, two-electrode voltage clamp, CaV1.2:CaVβ3 channels in Xenopus oocytes; type: cell-based, human CaV1.2; Xenopus oocytes; conditions: for V1/2, midpoint of activation: Ca2+ charge carrier
T1 construct: expressed in transfected cells; host or cells: Xenopus oocytes (mRNA injection)

[1] = Circular dichroism of AID peptides (helical content); type: physicochemical; conditions: 70 μM, 4 °C, 50 mM KCl, 10 mM potassium phosphate, pH 7.3, 2 mm cuvette, triplicate points
Method: Circular dichroism spectra were measured in a 2 mm path length quartz cuvette (Hellma), 50 mM KCl, and 10 mM KH2PO4/K2HPO4, pH 7.3, using an Aviv model 215 spectropolarimeter (Aviv Biomedical) equipped with a Peltier temperature controller. Wavelength scans from 320 to 190 nm were taken at 4 °C. Each point was determined in triplicate from the same sample and subtracted by the average of a triplicate buffer scan. Each sample was checked for purity by HPLC. Molar ellipticity was calculated as follows: θ = 100(Δm)/(Cnl), where Δm is the CD signal in millidegrees after buffer subtraction, C is the millimolar peptide concentration, n is the number of residues in the peptide, and l is the cuvette path length in centimeters.

CaV1.2-Y437A:CaVβ2a = CaV1.2-Y437A:CaVβ2a (Rattus norvegicus, UniProt Q8VGC3); test: Peptide injection competition, two-electrode voltage clamp, CaV1.2-Y437A:CaVβ2a channels in Xenopus oocytes; conditions: 400 μM peptide; for ti300, percent inactivation at 300 ms / A1, relative amplitude of fast inactivation component / A2, relative amplitude of second inactivation component / τ1, fast inactivation time constant / τ2, second inactivation time constant: +20 mV; for ti300, percent inactivation at 300 ms / V1/2, midpoint of activation: Ca2+ charge carrier; for ti300, percent inactivation at 300 ms / A1, relative amplitude of fast inactivation component / A2, relative amplitude of second inactivation component / τ1, fast inactivation time constant / τ2, second inactivation time constant / V1/2, midpoint of activation / Imax, maximal current amplitude: mean ± SEM
[2] = ITC, 15 °C, pH 7.3, single site model, n = 3 (Cav1.2 AID), 2 (AID-CEN), 3 (AID-CAP)
[3] = ITC, 15 °C, pH 7.3, n = 3 (Cav1.2 AID), 2 (AID-CEN), 3 (AID-CAP)
[4] = 2.8 mM peptide, over 30 min postinjection
[5] = 5 min postinjection, 2.8 mM peptide, +20 mV, double exponential fit, mean ± SEM, N = 6 (AID-CAP), 7 (AID)
[6] = 5 min postinjection, 2.8 mM peptide, +20 mV, monoexponential fit, mean ± SEM, N = 6 (AID-CAP), 7 (AID)
[7] = 5 min postinjection, 2.8 mM peptide, mean ± SEM, N = 6 (AID-CAP), 7 (AID)
[8] = 30 min postinjection, 2.8 mM peptide, +20 mV, monoexponential fit, mean ± SEM, N = 6 (AID-CAP), 7 (AID)
[9] = 30 min postinjection, 2.8 mM peptide, mean ± SEM, N = 6 (AID-CAP), 7 (AID)

T1 sequence (P54286 whole entry): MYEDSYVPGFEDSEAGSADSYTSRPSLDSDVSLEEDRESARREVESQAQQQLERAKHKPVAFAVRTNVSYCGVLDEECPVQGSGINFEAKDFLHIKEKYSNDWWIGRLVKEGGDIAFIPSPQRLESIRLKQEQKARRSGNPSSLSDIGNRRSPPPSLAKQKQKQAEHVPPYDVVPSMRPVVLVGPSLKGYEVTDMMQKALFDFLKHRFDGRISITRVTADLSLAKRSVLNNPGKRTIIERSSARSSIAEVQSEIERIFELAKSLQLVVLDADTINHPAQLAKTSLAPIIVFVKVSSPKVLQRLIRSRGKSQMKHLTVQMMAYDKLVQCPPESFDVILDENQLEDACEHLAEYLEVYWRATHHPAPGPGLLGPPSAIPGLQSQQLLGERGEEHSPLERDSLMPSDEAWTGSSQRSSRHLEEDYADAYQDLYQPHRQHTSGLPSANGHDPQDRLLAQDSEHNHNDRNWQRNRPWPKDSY

Q: Which Kd (CaVβ2a core; [2]) does the source give for `CC[C@H](C)[C@H](NC(=O)[C@H](Cc1c[nH]c2ccccc12)NC(=O)[C@H](CC(=O)O)NC(=O)[C@H](CC(C)C)NC(=O)[C@H](Cc1ccc(O)cc1)NC(=O)CNC(=O)[C@H](CCCCN)NC(=O)[C@H](CC(C)C)NC(=O)[C@H](CC(=O)O)NC(=O)[C@@H]1CSCc2cccc(c2)CSC[C@H](N)C(=O)N[C@@H](CO)C(=O)N2CCC[C@H]2C(=O)N[C@@H](CC(C)C)C(=O)N[C@@H](CCC(=O)O)C(=O)N1)C(=O)N[C@H](C(=O)N[C@@H](CCC(N)=O)C(=O)N[C@@H](C)C(=O)N[C@@H](CCC(=O)O)C(N)=O)[C@@H](C)O` [AID-CAP] (H-CSPLECDLKGYLDWITQAE-NH2; linker 1-6 via mXylylene) here?
A: 5.1 ± 1.6 nM

Q: Which Kd (CaVβ2a core; [2]) does the source give for `CC[C@H](C)[C@H](NC(=O)[C@H](Cc1c[nH]c2ccccc12)NC(=O)[C@@H]1CSCc2cccc(c2)CSC[C@H](NC(=O)[C@H](CC(C)C)NC(=O)[C@H](CC(=O)O)NC(=O)[C@H](CCC(=O)O)NC(=O)[C@H](CCC(=O)O)NC(=O)[C@H](CC(C)C)NC(=O)[C@@H]2CCCN2C(=O)[C@H](CO)NC(=O)[C@H](C)N)C(=O)NCC(=O)N[C@@H](Cc2ccc(O)cc2)C(=O)N[C@@H](CC(C)C)C(=O)N1)C(=O)N[C@H](C(=O)N[C@@H](CCC(N)=O)C(=O)N[C@@H](C)C(=O)N[C@@H](CCC(=O)O)C(N)=O)[C@@H](C)O` [AID-CEN] (H-ASPLEEDLCGYLCWITQAE-NH2; linker 9-13 via mXylylene) here?
A: 5.2 ± 1.5 nM

Q: With CQQLEEDLKGYLDWITQAE-NH2 [AID] as the molecule, how does the Kd (CaVβ2a core; [2]) read?
A: 6.6 ± 2 nM

Q: What about the ΔH (CaVβ2a core; [3]) of the same molecule?
A: –15.6 ± 2.4 kcal mol^–1

Q: And the ΔS (CaVβ2a core; [3])?
A: –16.7 ± 6.0 cal mol^–1 K^–1

Q: What about the “N (binding stoichiometry)” value (CaVβ2a core; [2]) of the same molecule?
A: 0.94 ± 0.07

Q: What about the “Kd/Kd CaV1.2 AID” value (CaVβ2a core; ratio of Kd to that of CaV1.2 AID) of the same molecule?
A: 1

Q: What about the “P vs HotA, Figure 7B, E, F (ti300, Imax)” value (CaV1.2:CaVβ3; 2.8 mM peptide vs 4 mM HotA) of the same molecule?
A: < 0.001

Q: And the “P vs HotA, Figure 7C, D (inactivation τ, ΔV1/2)” value (CaV1.2:CaVβ3; 2.8 mM peptide vs 4 mM HotA)?
A: < 0.05

Q: What about the “change in channel inactivation kinetics, in words” value (CaV1.2:CaVβ3; [4]) of the same molecule?
A: changed from one having two components to a monoexponential process

Q: And the “current rundown, in words” value (CaV1.2:CaVβ3; [4])?
A: strongly increased current rundown

Q: What about the A1 (CaV1.2:CaVβ3; [5]) of the same molecule?
A: 54.0 ± 2.7%

Q: And the A2 (CaV1.2:CaVβ3; [5])?
A: 34.1 ± 1.4%

Q: What about the τ1 (CaV1.2:CaVβ3; [5]) of the same molecule?
A: 40.0 ± 5.2 ms

Q: What about the τ2 (CaV1.2:CaVβ3; [5]) of the same molecule?
A: 354.4 ± 119.2 ms

Q: And the A1 (CaV1.2:CaVβ3; [6])?
A: 76.9 ± 3.1%

Q: And the τ1 (CaV1.2:CaVβ3; [6])?
A: 62.6 ± 7.6 ms

Q: What about the “ti300, percent inactivation at 300 ms” value (CaV1.2:CaVβ3; 5 min postinjection, 2.8 mM peptide, +20 mV, mean ± SEM, N = 6 (AID-CAP), 7 (AID)) of the same molecule?
A: 73.4 ± 2.0%

Q: And the “V1/2, midpoint of activation” value (CaV1.2:CaVβ3; [7])?
A: 10.4 ± 2.2 mV

Q: And the “Imax, maximal current amplitude” value (CaV1.2:CaVβ3; [7])?
A: –0.860 ± 0.096

Q: What about the A1 (CaV1.2:CaVβ3; [8]) of the same molecule?
A: 65.0 ± 4.0%

Q: And the τ1 (CaV1.2:CaVβ3; [8])?
A: 118.2 ± 11.0 ms

Q: And the “ti300, percent inactivation at 300 ms” value (CaV1.2:CaVβ3; 30 min postinjection, 2.8 mM peptide, +20 mV, mean ± SEM, N = 6 (AID-CAP), 7 (AID))?
A: 49.8 ± 1.9%

Q: And the “V1/2, midpoint of activation” value (CaV1.2:CaVβ3; [9])?
A: 21.0 ± 2.0 mV

Q: And the “Imax, maximal current amplitude” value (CaV1.2:CaVβ3; [9])?
A: –0.116 ± 0.010

Q: And the “effect on CaV1.2α1:CaVβ3 interaction, in words” value (CaV1.2:CaVβ3; 30 min postinjection, AID, AID-CAP 2.8 mM, HotA 4 mM)?
A: near complete disruption of the CaV1.2α1:CaVβ3 interaction

Q: What about the “CD spectrum / helical content, in words” value [1] of the same molecule?
A: absent

Q: What about the “P vs HotA, all panels of Figure 5 (ti300, A1, ΔV1/2, Imax)” value (CaV1.2-Y437A:CaVβ2a) of the same molecule?
A: < 0.001

Q: What about the “effect on inactivation / CaVβ binding, in words” value (CaV1.2-Y437A:CaVβ2a; 30 min postinjection) of the same molecule?
A: interfered completely with CaVβ binding

Q: What about the “rundown of Imax” value (CaV1.2-Y437A:CaVβ2a; over 30 min postinjection, vs water or HotA) of the same molecule?
A: consistently higher rundown

Q: And the “ti300, percent inactivation at 300 ms” value (CaV1.2-Y437A:CaVβ2a; 5 min postinjection)?
A: 64.9 ± 1.9%

Q: What about the “A1, relative amplitude of fast inactivation component” value (CaV1.2-Y437A:CaVβ2a; 5 min postinjection) of the same molecule?
A: 48.5 ± 1.8%

Q: What about the “A2, relative amplitude of second inactivation component” value (CaV1.2-Y437A:CaVβ2a; 5 min postinjection) of the same molecule?
A: 24.1 ± 1.6%

Q: And the “τ1, fast inactivation time constant” value (CaV1.2-Y437A:CaVβ2a; 5 min postinjection)?
A: 35.0 ± 1.5 ms

Q: And the “τ2, second inactivation time constant” value (CaV1.2-Y437A:CaVβ2a; 5 min postinjection)?
A: 251.5 ± 16.1 ms

Q: And the “V1/2, midpoint of activation” value (CaV1.2-Y437A:CaVβ2a; 5 min postinjection)?
A: 2.9 ± 1.7 mV

Q: And the “Imax, maximal current amplitude” value (CaV1.2-Y437A:CaVβ2a; 5 min postinjection)?
A: –0.883 ± 0.111

Q: And the “ti300, percent inactivation at 300 ms” value (CaV1.2-Y437A:CaVβ2a; 30 min postinjection)?
A: 44.8 ± 2.1%

Q: And the “A1, relative amplitude of fast inactivation component” value (CaV1.2-Y437A:CaVβ2a; 30 min postinjection)?
A: 24.5 ± 3.0%

Q: What about the “A2, relative amplitude of second inactivation component” value (CaV1.2-Y437A:CaVβ2a; 30 min postinjection) of the same molecule?
A: 31.0 ± 1.9%

Q: What about the “τ1, fast inactivation time constant” value (CaV1.2-Y437A:CaVβ2a; 30 min postinjection) of the same molecule?
A: 53.3 ± 14.4 ms

Q: What about the “τ2, second inactivation time constant” value (CaV1.2-Y437A:CaVβ2a; 30 min postinjection) of the same molecule?
A: 304.0 ± 50.9 ms

Q: What about the “V1/2, midpoint of activation” value (CaV1.2-Y437A:CaVβ2a; 30 min postinjection) of the same molecule?
A: 15.1 ± 2.0 mV

Q: What about the “Imax, maximal current amplitude” value (CaV1.2-Y437A:CaVβ2a; 30 min postinjection) of the same molecule?
A: –0.242 ± 0.021

From article PMC5481814, “Stapled Voltage-Gated Calcium Channel (CaV) α-Interaction Domain (AID) Peptides Act As Selective Protein–Protein Interaction Inhibitors of CaV Function” (ACS Chemical Neuroscience, 2017)
